Laboratory results taken from patent publication US9512176B2, “Age inhibitors” (Centre National de la Recherche Scientifique, priority 2005, dated 2016).
Non-standard residues stand in square brackets, D forms with d. Residues, ends and D or L forms follow the SMILES beside them. ξ: configuration not given here. Ile(3ξ) = CCC(C)[C@H](N)C(=O)O; dDap = NC[C@@H](N)C(=O)O; Dap = NC[C@H](N)C(=O)O

Each compound was assayed on ribonuclease A (assay: Enzymatic activity of ribonuclease A after treatment with methylglyoxal and inhibitors (methylene blue RNA staining)). Conditions: ribonuclease A treated with methylglyoxal (MG) + inhibitor in equimolar quantity, 37° C.; control RNase 100, RNase + methylglyoxal 10.11%.
Type: biochemical
Procedure: (§1) Ribonuclease A and lysozyme (10 mg/ml) are incubated in the presence of methylglyoxal (10 mM) or in the presence of methylglyoxal and one of the inhibitors according to the present invention in an equimolar quantity at 37° C. After 48 hours of incubation, the proteins are analyzed by polyacrylamide gel electrophoresis (8%-16% SDS PAGE gel).
The enzymatic activity of ribonuclease A after treatment with methylglyoxal and the various inhibitors according to the present invention is measured using the methylene blue RNA staining technique of Greiner-Stöffele et al. (Anal. Biochem. (1996) 240, 24).

Structure (SMILES) | Enzymatic activity (%)
C[C@@H](NC(=O)[C@H](N)CN)C(=O)O [example 8, D-DAPA-D-Ala.2HCl] (H-[dDap]-[dA]-OH) | 87.37
CC(C)C[C@H](NC(=O)[C@@H](N)[C@H](C)N)C(=O)O [example 12, (2S,3S)-DABA-L-Leu.2HCl] | 80.97
CC(C)C[C@H](NC(=S)[C@@H](N)CN)C(=O)O [example 16, L-DAPA-L-(S)-Leu.2HCl] | 75.69
NC[C@H](N)C(=O)NCC(=O)O [example 17, L-DAPA-Gly.2HCl] (H-[Dap]-Gly-OH) | 85.61
CCC(C)[C@H](NC(=O)[C@@H](N)CN)C(=O)O (stereo partly drawn) [example 18, L-DAPA-L-Ile.2HCl] (H-[Dap]-[Ile(3ξ)]-OH) | 90.77
NC[C@H](N)C(=O)N[C@@H](Cc1ccccc1)C(=O)O [example 21, L-DAPA-L-Phe.2HCl] (H-[Dap]-Phe-OH) | 70.20

These compounds were tested on EA.hy 926 cell line (assay: Growth of EA.hy 926 endothelial cells with MG scavengers and/or methylglyoxal (MTT)). Conditions: not given.
Type: cell-based, human
Procedure: The cells used for the test are from the EA.hy 926 cell line, which are endothelial cells obtained by the hybridization of human umbilical vein endothelial cells (HUVECs) with lung cancer cells (A549). The EA.hy 926 endothelial cells are incubated in Dulbecco's modified Eagle's Medium (DMEM) enriched with 10% fetal calf serum. The cells are incubated in 12-well plates. Each well initially contains 100,000 cells. Cell growth is achieved by incubating the cells in 2 ml of culture medium after adding or not adding the various potential inhibitors (1 mM) and/or methylglyoxal (600 μM) for 48 hours at 37° C. in a moist atmosphere with 5% CO2.
The number of cells is evaluated in the following way:
The cells are stained using the (4,5-dimethylthiazol-2-yl)-2,5-diphenyltetrazolium bromide (MTT) assay. MTT penetrates in the cell where it is converted into formazan. The quantity of formazan formed is proportional to the number of living cells.
The results are expressed as a relative percentage of the number of cells after treatment compared to the number of control cells without treatment [100*OD (treated cells)/OD (control cells)]. Detection is carried out by UV/visible spectrophotometry at 570 nm.
Principle: MTT (yellow) penetrates the cell and is converted into an insoluble blue compound, formazan, by cleavage of its tetrazolium rings by the mitochondrial dehydrogenase enzymes of living cells. Formazan is solubilized by isopropanol. The number of cells is proportional to the quantity of formazan formed and its absorbance.

Structure (SMILES) | cell survival when incubated with MG [%]
CCC(C)[C@H](NC(=O)[C@@H](N)CN)C(=O)O (stereo partly drawn) [example 18, L-DAPA-L-Ile.2HCl] (H-[Dap]-[Ile(3ξ)]-OH) | 79

Same assay, conditions: Homo sapiens, EA.hy 926; scavenger 1 mM + methylglyoxal 600 μM, 48 hours; relative to untreated control cells; MG alone 24; mean of 3 experiments; read-out: Cells + MG scavengers + Methylglyoxal (B)

Structure (SMILES) | viability at 1000 µM [%]
C[C@@H](NC(=O)[C@H](N)CN)C(=O)O [example 8, D-DAPA-D-Ala.2HCl] (H-[dDap]-[dA]-OH) | 71
CC(C)C[C@H](NC(=O)[C@@H](N)[C@H](C)N)C(=O)O [example 12, (2S,3S)-DABA-L-Leu.2HCl] | 73
CC(C)C[C@H](NC(=S)[C@@H](N)CN)C(=O)O [example 16, L-DAPA-L-(S)-Leu.2HCl] | 74
NC[C@H](N)C(=O)NCC(=O)O [example 17, L-DAPA-Gly.2HCl] (H-[Dap]-Gly-OH) | 50
CCC(C)[C@H](NC(=O)[C@@H](N)CN)C(=O)O (stereo partly drawn) [example 18, L-DAPA-L-Ile.2HCl] (H-[Dap]-[Ile(3ξ)]-OH) | 79
NC[C@H](N)C(=O)N[C@@H](Cc1ccccc1)C(=O)O [example 21, L-DAPA-L-Phe.2HCl] (H-[Dap]-Phe-OH) | 71

Same assay, conditions: Table 2; cells with scavenger + MG minus cells with scavenger alone

Structure (SMILES) | Difference (B) − (A)
C[C@@H](NC(=O)[C@H](N)CN)C(=O)O [example 8, D-DAPA-D-Ala.2HCl] (H-[dDap]-[dA]-OH) | −6
CC(C)C[C@H](NC(=O)[C@@H](N)[C@H](C)N)C(=O)O [example 12, (2S,3S)-DABA-L-Leu.2HCl] | −4
CC(C)C[C@H](NC(=S)[C@@H](N)CN)C(=O)O [example 16, L-DAPA-L-(S)-Leu.2HCl] | +3
NC[C@H](N)C(=O)NCC(=O)O [example 17, L-DAPA-Gly.2HCl] (H-[Dap]-Gly-OH) | −4
CCC(C)[C@H](NC(=O)[C@@H](N)CN)C(=O)O (stereo partly drawn) [example 18, L-DAPA-L-Ile.2HCl] (H-[Dap]-[Ile(3ξ)]-OH) | −7
NC[C@H](N)C(=O)N[C@@H](Cc1ccccc1)C(=O)O [example 21, L-DAPA-L-Phe.2HCl] (H-[Dap]-Phe-OH) | −6

Same assay, conditions: scavenger 1 mM, no methylglyoxal, 48 hours; number of cells relative to untreated control cells; mean of 3 experiments

Cells + MG scavengers (A) [%] | Structure (SMILES)
77 | C[C@@H](NC(=O)[C@H](N)CN)C(=O)O [example 8, D-DAPA-D-Ala.2HCl] (H-[dDap]-[dA]-OH)
77 | CC(C)C[C@H](NC(=O)[C@@H](N)[C@H](C)N)C(=O)O [example 12, (2S,3S)-DABA-L-Leu.2HCl]
71 | CC(C)C[C@H](NC(=S)[C@@H](N)CN)C(=O)O [example 16, L-DAPA-L-(S)-Leu.2HCl]
54 | NC[C@H](N)C(=O)NCC(=O)O [example 17, L-DAPA-Gly.2HCl] (H-[Dap]-Gly-OH)
86 | CCC(C)[C@H](NC(=O)[C@@H](N)CN)C(=O)O (stereo partly drawn) [example 18, L-DAPA-L-Ile.2HCl] (H-[Dap]-[Ile(3ξ)]-OH)
77 | NC[C@H](N)C(=O)N[C@@H](Cc1ccccc1)C(=O)O [example 21, L-DAPA-L-Phe.2HCl] (H-[Dap]-Phe-OH)

Same assay, conditions: scavenger + methylglyoxal

Structure (SMILES) | effect against suppression of cell growth by MG
CCC(C)[C@H](NC(=O)[C@@H](N)CN)C(=O)O (stereo partly drawn) [example 18, L-DAPA-L-Ile.2HCl] (H-[Dap]-[Ile(3ξ)]-OH) | same trend

Same assay, conditions: text b496, compound alone

Structure (SMILES) | cell toxicity [%]
C[C@@H](NC(=O)[C@H](N)CN)C(=O)O [example 8, D-DAPA-D-Ala.2HCl] (H-[dDap]-[dA]-OH) | 39
NC[C@H](N)C(=O)NCC(=O)O [example 17, L-DAPA-Gly.2HCl] (H-[Dap]-Gly-OH) | 43

Same assay, conditions: values in brackets

Structure (SMILES) | difference between number of cells growing with compound and with MG and compound
C[C@@H](NC(=O)[C@H](N)CN)C(=O)O [example 8, D-DAPA-D-Ala.2HCl] (H-[dDap]-[dA]-OH) | +1
CC(C)C[C@H](NC(=O)[C@@H](N)[C@H](C)N)C(=O)O [example 12, (2S,3S)-DABA-L-Leu.2HCl] | −4
NC[C@H](N)C(=O)NCC(=O)O [example 17, L-DAPA-Gly.2HCl] (H-[Dap]-Gly-OH) | +3
CCC(C)[C@H](NC(=O)[C@@H](N)CN)C(=O)O (stereo partly drawn) [example 18, L-DAPA-L-Ile.2HCl] (H-[Dap]-[Ile(3ξ)]-OH) | −9
NC[C@H](N)C(=O)N[C@@H](Cc1ccccc1)C(=O)O [example 21, L-DAPA-L-Phe.2HCl] (H-[Dap]-Phe-OH) | −6

The compounds below were run on ribonuclease A (assay: SDS PAGE electrophoresis of ribonuclease A incubated with methylglyoxal and inhibitor). Conditions: ribonuclease A 10 mg/ml, methylglyoxal 10 mM, inhibitor equimolar, 37° C., 48 hours.
Type: biochemical
Procedure: as §1
The AGE inhibitors according to the present invention, namely L-DAPA-L-Leu (example 1) and L-DAPA-L-Ile (example 18), or AG (10 mM) are incubated with MG and ribonuclease A for […] at 37° C.

Structure (SMILES) | protection from structural modifications (dimer form) caused by methylglyoxal
C[C@@H](NC(=O)[C@H](N)CN)C(=O)O [example 8, D-DAPA-D-Ala.2HCl] (H-[dDap]-[dA]-OH) | provides protection
CC(C)C[C@H](NC(=O)[C@@H](N)[C@H](C)N)C(=O)O [example 12, (2S,3S)-DABA-L-Leu.2HCl] | provides protection
NC[C@H](N)C(=O)NCC(=O)O [example 17, L-DAPA-Gly.2HCl] (H-[Dap]-Gly-OH) | provides protection
CCC(C)[C@H](NC(=O)[C@@H](N)CN)C(=O)O (stereo partly drawn) [example 18, L-DAPA-L-Ile.2HCl] (H-[Dap]-[Ile(3ξ)]-OH) | provides protection

These compounds were tested on lysozyme (assay: SDS PAGE electrophoresis of lysozyme incubated with methylglyoxal and inhibitor). Conditions: lysozyme 10 mg/ml, methylglyoxal 10 mM, inhibitor equimolar, 37° C., 48 hours.
Type: biochemical
Procedure: as §1

Structure (SMILES) | protection from structural modifications (dimer form) caused by methylglyoxal
C[C@@H](NC(=O)[C@H](N)CN)C(=O)O [example 8, D-DAPA-D-Ala.2HCl] (H-[dDap]-[dA]-OH) | provides protection
CC(C)C[C@H](NC(=O)[C@@H](N)[C@H](C)N)C(=O)O [example 12, (2S,3S)-DABA-L-Leu.2HCl] | provides protection
NC[C@H](N)C(=O)NCC(=O)O [example 17, L-DAPA-Gly.2HCl] (H-[Dap]-Gly-OH) | provides protection
CCC(C)[C@H](NC(=O)[C@@H](N)CN)C(=O)O (stereo partly drawn) [example 18, L-DAPA-L-Ile.2HCl] (H-[Dap]-[Ile(3ξ)]-OH) | provides protection

The compounds below were run on glyoxalase I (assay: Glyoxalase I treated with methylglyoxal: non-denaturing electrophoresis and enzymatic activity). Conditions: MG 10 mM, 24 hours, non-denaturing electrophoresis.
Type: biochemical
Procedure: MG reacts with a protein's lysine and arginine residues, thus altering the charges on the modified polypeptide. […] The exposure of glyoxalase I to MG (10 mM) for 24 hours increases the mobility of the protein toward the positive electrode, a change that is consistent with the loss of positive charges from the ε-amino and guanidino groups and the gain of negative charges.
The incubation of glyoxalase I, a key protein in the α-oxoaldehyde detoxification system, in the presence of methylglyoxal, modifies the protein. This modification causes a change in charge and a 50% decrease in enzymatic activity compared to the control.

gain of negative charge of glyoxalase I exposed to MG | Structure (SMILES)
inhibits the gain of negative charge | CCC(C)[C@H](NC(=O)[C@@H](N)CN)C(=O)O (stereo partly drawn) [example 18, L-DAPA-L-Ile.2HCl] (H-[Dap]-[Ile(3ξ)]-OH)

Same assay, conditions: MG alone: 50% decrease in enzymatic activity

Structure (SMILES) | inhibition of glyoxalase I enzymatic activity and structural modification by methylglyoxal
CCC(C)[C@H](NC(=O)[C@@H](N)CN)C(=O)O (stereo partly drawn) [example 18, L-DAPA-L-Ile.2HCl] (H-[Dap]-[Ile(3ξ)]-OH) | prevents the inhibition exerted by methylglyoxal and protects against structural modifications

What follows are compounds tested on RNase A (assay: RNase A modifications induced by methylglyoxal (HPLC)). Conditions: RNase A 0.08 mM, methylglyoxal 32 mM, compound 38 mM, 21 hours at 37° C.
Type: biochemical
Procedure: FIGS. 11 to 13 present the results obtained by HPLC for three compounds according to the present invention, L-DAPA-L-Ile (example 18), L-DAPA-L-Val (example 23) and L-DAPA-L-Leu (example 1), on RNase A modifications induced by methylglyoxal. HPLC conditions are as follows: C-18, Symmetry 300 (4.6×250 mm) column, injection volume 100 μl of reaction mixture diluted to 1/10; flow 1 ml/min; temperature 40° C.; solvent A: H2O+0.1% TFA; solvent B: 60/40 CH3CN/H2O+0.1% TFA; linear gradient of 20% B to 80% B in 20 minutes; detection: UV at 215 nm: PDA (chromatograms extracted at 215 nm).

RNase A modifications induced by methylglyoxal | Structure (SMILES)
prevent the modifications to RNase A | CCC(C)[C@H](NC(=O)[C@@H](N)CN)C(=O)O (stereo partly drawn) [example 18, L-DAPA-L-Ile.2HCl] (H-[Dap]-[Ile(3ξ)]-OH)
